Test results taken from PMC3951324, “Side Chain Hydrophobicity Modulates Therapeutic Activity and Membrane Selectivity of Antimicrobial Peptide Mastoparan-X” (PLoS ONE, 2014).
Ends that are not written are not given here.

Assays:
[1] = Pyrene-cmc assay (micelle/aggregate formation); assay type: physicochemical
Description: Fluorescence excitation spectra were collected using an Olis modernized SLM8000 fluorescence spectrophotometer equipped with single-grating emission and double-grating excitation monochromator. The fluorometer was equipped with photon counter detectors. Pyrene was used to probe micellation as it is sensitive to environment hydrophobicity. Peptides were incubated in concentrations of 0.1–1000 µM in 10 mM HEPES, 100 mM sodium chloride, pH 7.4 buffer containing 75 nM pyrene. Samples were incubated for 2 h at 60°C followed by incubation overnight at room temperature and kept in the dark until measured. Measurements were carried out at 37°C. Excitation spectra were collected using emission wavelength 390 nm and 16 nm emission slit sizes. Excitation spectra were scanned in range 310–350 nm with excitation slits sizes of 0.5 nm. The excitation spectrum shift denotes the formation of micelles/aggregates (hydrophobic cavity), which is gauged by intensity ratio R = I339/I333 [29],[30]. The plot of R versus the detergent/peptide concentration, c, measures the partitioning of pyrene into the formed micelles/aggregates. The intensity ratio is fitted using the sigmoidal function [drawing 1] , where R0 and ΔR denote the initial and change in intensity ratio, respectively. α and ci denote the normalized slope and peptide concentration at which curve inflection occurs, respectively. […]

[2] = obtained via tryptophan fluorescence measurements; cited from earlier work
[3] = Mode of peptide-membrane interaction gauged by ITC; assay type: physicochemical; settings: 20 mM POPC∶POPG (3∶1) LUVs (8 mM for OAMPX) injected 38×1 µL into 100 µM peptide, 37°C, triplicates
Description: (§1) Lipid stock solutions of POPC and POPG were prepared in chloroform∶methanol (9∶1). Mixtures of POPC∶POPG (3∶1) were prepared and the organic solvent was evaporated under a gentle stream of nitrogen. The lipid films were kept in vacuum (P<0.1 Pa) overnight in order to remove the residual solvent. Buffer containing 10 mM HEPES and 100 mM sodium chloride (pH 7.4) was added to the lipid films, and they were hydrated for 60 min followed by extrusion through 100 nm using an Avanti mini-extruder. Dynamic Light Scattering (DLS, Brookhaven Instrument Corporation, ZetaPALS) was used for measuring the liposome size distribution. The effective lipid concentration was determined by inductively coupled plasma atomic emission spectroscopy (ICP-AES Vista AX, Varian).
The nature of the peptides' membrane interaction was studied as a function of lipid/peptide ratio (L/P) by ITC (iTC200, Microcal). All experiments were conducted by injection of 20 mM LUVs into 100 µM peptide solution. For OAMPX, 8 mM LUVs were used. The experiments were conducted as 38×1 µL injections, T = 37°C, and the speed of the stirrer was 1000 rpms. All titrations were conducted in triplicates.

[4] = tested on: Escherichia coli, strain INV-α; assay: Determination of minimal inhibitory concentration (MIC); assay type: cell-based; settings: LB medium, 37°C, 20 h, shaking, peptide 0.05–50 µM, absorbance 570 nm, triplicates
Description: (§2) A stock dilution series with ten points, ranging from 1 µM to 1 mM, was prepared in sterile PBS from freshly dissolved peptides. The dilution series was dispensed in triplicates in 96-deepwell microtiter plates (VWR Denmark, Herlev, Denmark), with 15 µl in each well. Multidispensing with electronic pipettes (Biohit, Tåstrup, Denmark) was used throughout. Lactococcus lactis, strain MG1363 (ATCC, LGC Standards AB, Boras, Sweden) and Escherichia coli, strain INV-α (Invitrogen, Nærum, Denmark) were grown in M9 (Sigma Aldrich, Brøndby, Denmark) and LB medium (Difco, BD Biosciences, Brøndby Denmark), respectively. A single colony was grown overnight at 30°C and 37°C for L.lactis and E.coli respectively. The next day, a fresh culture was started with a twenty-fold dilution of the cells and grown for exactly 60 min (optical density was approximately 0.4 at 570 nm). The cell culture was diluted (300 fold for L.lactis and 1000 fold for E.coli) before adding 150 µl to microtiter plates already containing 15 µl peptide solution and 135 µl fresh medium. […] Plates with L.lactis were sealed with lid and parafilm, and plates with E.coli were sealed with a gas-permeable tape (VWR Denmark, Herlev, Denmark). The plates were incubated at the respective temperatures for 20 hours with shaking (150 rpm). For each measurement, 100 µl of the cell culture was transferred to clear, flat-bottomed microtiter plates, and the absorbance at 570 nm was determined using a Victor3 plate reader (Perkin Elmer, Skovlunde, Denmark). The measurement was conducted in triplicates.

[5] = tested on: Lactococcus lactis, strain MG1363; assay: as above; assay type: cell-based; settings: strain MG1363, M9 medium, 30°C, 20 h, shaking; peptide 0.05–50 µM; absorbance 570 nm; triplicates
Description: as §2

[6] = Peptide partitioning by ITC; assay type: physicochemical; settings: 37°C
Description: as §1
The partitioning of AMPs onto lipid membranes was investigated by isothermal titration calorimetry (ITC, iTC200, Microcal, 204 µL cell volume). For the peptide analogues MPX, Ala1 and Ala14, 10 mM […] (3∶1) LUVs were injected (19×2 µL) into a 20 µM peptide solution at T = 37°C. The speed of the stirrer was 1000 rpms, and all titration were initiated with a 0.5 µL pre-injection. The heat-traces were integrated using custom made software, and the heat of partitioning was analysed using a partitioning isotherm based on Gouy-Chapman-Stern description of the electrostatic interaction of the peptide and membrane, [32]. The effective charge of the peptide (zeff), the partitioning coefficient of insertion (Kins), the molar enthalpy of partitioning ( [drawing 4] ), and the heat of dilution (qdil) were extracted as fitting parameters. The effective partitioning coefficient was derived as [drawing 5] where F is Faradays constant, [drawing 6] is the electrostatic potential evaluated at the interface of a fully charged membrane (25mol% negative charge before insertion of the first peptide), and R is the ideal gas constant. The instrument was electrically calibrated, and blank titration of LUVs into buffer was performed to ensure that heat of dilution could be modelled as a constant in the data analysis. Each titration was conducted in triplicates.

INWKGIAAMAKKLL-NH2 [MPX, mastoparan X, reference compound]
Critical micelle concentration (cmc) ([1]; pyrene (75 nM) fluorescence excitation shift I339/I333, 10 mM HEPES, 100 mM NaCl, pH 7.4, peptide 0.1–1000 µM, 2 h 60°C then overnight RT, measured at 37°C, cmc = onset of sigmoid, triplicates): >1000 µM
cmc ([1]; pyrene assay, no shift in pyrene excitation spectrum in covered concentration range, pH 7.4, 37°C): > 1 mM
effective charge (previous result) [2]: 1.7
endpoint of the reversible (secondary) process, lipid/peptide ratio L/P [3]: ~21
MIC (E. coli) [4]: 8 ± 3 µM
MIC (L. lactis) [5]: 2.5 ± 0.5 µM
effective charge (zeff) of the peptide ([6]; 10 mM POPC∶POPG (3∶1) 100 nm LUVs injected (19×2 µL) into 20 µM peptide, pH 7.4, Gouy-Chapman-Stern fit, triplicates): 2.5±0.1
partition coefficient of insertion Kins/10^5 ([6]; 10 mM POPC∶POPG (3∶1) LUVs into 20 µM peptide, pH 7.4, Gouy-Chapman-Stern fit, value is Kins divided by 10^5, triplicates): 4.2±0.2
molar enthalpy of partitioning ([6]; 10 mM POPC∶POPG (3∶1) LUVs into 20 µM peptide, pH 7.4, triplicates): -5.74 ± 0.072 kcal/mol
effective partition coefficient Keff/10^8 ([6]; derived from Kins, zeff and the surface potential of fully charged membrane (25 mol% negative charge), value is Keff divided by 10^8): 1.6±0.2
